Assays:
recombinant human PAI-1 [1] = target: T1, recombinant human PAI-1 (Homo sapiens, UniProt P05121); assay: PAI-1 inhibitory activity, Test Method A (tPA fluorogenic substrate, Tris buffer pH8.0, 37 C); assay type: biochemical; conditions: for IC50: 50% inhibitory concentration of PAI-1 activity, according to the aforementioned method; for Inhibitory Ratio at 25 μM (%): Test Method A
rat thrombosis model = assay: Tests in rat thrombosis model (carotid shunt, thrombus weight); assay type: in vivo; conditions: intraperitoneally 30 mg/kg/day for 8 days beforehand, control 94.9±3.3 mg, n=4, p<0.01
Description: Catheters for shunt were inserted into the right carotid artery and the left carotid artery of a rat, blood was circulated for 30 minutes, and weights of thromboses adhered to threads placed inside the catheters were measured.

[2] = system: mouse heart transplantation model; assay: Tests in mouse (murine) heart transplantation model; assay type: in vivo; conditions: p<0.05
recombinant human PAI-1 [3] = target: T1, recombinant human PAI-1; assay: Inhibition of complex formation of PAI-1 and tPA (SDS-PAGE); assay type: biochemical; conditions: 100 μM concentration
Description: To a 2.5 μL solution obtained by diluting a DMSO solution of the test compound at 4-fold concentration of the test concentration with PBS(-), 5 μL of 150 nM recombinant human PAI-1 solution adjusted with a phosphate buffer (pH6.6, 0.05M Sodium Phosphate, 0.1 M NaCl, 1 mM EDTA) was added, and reacted for 5 minutes at 37° C. […] of 600 nM recombinant human one-chain tPA solution adjusted with PBS(-) was added, and further reacted for 5 minutes at 37° C. 10 μL of stop buffer (1.25 mM Tris-HCl pH6.8, 4% SDS, 0.01% BPB, 14% Glycerol) was added, heated for 30 seconds at 100° C., and then the total amount of 20 μL was applied to 10% SDS-PAGE gel electrophoresis. When the test compound was not added as being a control, a band of PAI-1-tPA complex was observed.

recombinant human PAI-1 [4] = target: T1, recombinant human PAI-1; assay: PAI-1 inhibitory activity, Test Method B (tPA fluorogenic substrate, Tris buffer pH7.5, room temperature); assay type: biochemical; conditions: 25 μM test compound; Test Method B (cells marked "method B")
Description: To a 90 μL solution obtained by diluting a DMSO solution of the test compound at 2.2-fold concentration of the test concentration (=final concentration when fluorogenic substrate was added) with a Tris buffer (pH7.5), 10 μL of 120 nM recombinant human PAI-1 solution adjusted with pH6.6 phosphate buffer was added, and incubated for 15 minutes at room temperature. 50 μL of 800IU/ml two-chain tPA (activity standard) solution adjusted with Tris buffer (pH7.5) was added, and incubated for 30 minutes at room temperature. […] Fluorescence was measured at the excitation wavelength=360 nm, emission wavelength=460 or 465 nm using a microplete reader (SPECTRAFLUOR or GENios) by TECAN. The fluorescence intensities in the presence of the PAI-1 as the control (DMSO) or in the absence of the PAI-1 (tPA alone) were taken as 100% and 0% of PAI-1 activities, respectively, and inhibitory ratios of PAI-1 activities in the presence of the test compound were obtained. […]
In either method of Test Method A or B, fluorescence of tPA activation by the test compound in the absence of PAI-1 or that of the test compound was not observed.
In the following table, “method B” described in the column of the inhibitory ratio means that the results were measured by the above Test Method B. The other results indicated were measured by the above Test Method A.

T1 sequence (P05121 24-402): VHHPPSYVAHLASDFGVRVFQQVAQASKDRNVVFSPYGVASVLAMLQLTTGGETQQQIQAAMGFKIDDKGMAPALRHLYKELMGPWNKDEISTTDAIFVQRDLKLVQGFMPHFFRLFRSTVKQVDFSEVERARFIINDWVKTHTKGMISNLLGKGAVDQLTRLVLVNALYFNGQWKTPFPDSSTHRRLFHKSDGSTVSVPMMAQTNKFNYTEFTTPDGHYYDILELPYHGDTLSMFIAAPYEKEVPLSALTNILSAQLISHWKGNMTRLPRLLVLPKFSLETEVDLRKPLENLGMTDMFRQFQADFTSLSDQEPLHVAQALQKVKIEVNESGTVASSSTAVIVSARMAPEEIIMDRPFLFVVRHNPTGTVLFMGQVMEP

SMILES	IC50 (recombinant human PAI-1 [1]) [nM]	inhibition of the complex formation of PAI-1 and tPA observed with SDS-PAGE (recombinant human PAI-1 [3])	Inhibitory Ratio at 25 μM (%) (recombinant human PAI-1 [1]; 25 μM test compound)	other results
O=C1SC(=Cc2cc(O)c(O)c(O)c2)C(=O)N1Cc1ccc(Cl)c(Cl)c1 [compound 10, 5-(3,4,5-Trihydroxybenzylidene)-3-(3,4-dichlorobenzyl)thiazolidine-2,4-dione]	450	completely inhibited	–	Inhibitory Ratio at 25 μM (%) (recombinant human PAI-1 [1]; test compound 25 μM): >99%; weight of thrombus (rat thrombosis model): 67.2 ± 6.3 mg; ratio of fibrous lesion 60 days after the transplantation ([2]; class II mismatch allograft, control 44.5±2.7%, n=5): 18.8±2.2%; Vascular endothelial hyperplasia (ratio of thickened endothelium to the internal elastic lamina); incidence of vascular intimal thickening ([2]; class II mismatch allograft, control 64.5±5.8%): 21.7±4.9%; graft survival ([2]; major mismatch allograft Balb/c to C57BL/6, intraperitoneally 20 mg/kg/day, control 7.2±0.2 days): 9.0 ± 0.7 days
O=C1SC(=Cc2ccc(O)c(O)c2)C(=O)N1Cc1ccc(Cl)cc1Cl [compound 23, 5-(3,4-dihydroxybenzylidene)-3-(2,4-dichlorobenzyl)thiazolidine-2,4-dione]	250	completely inhibited	–	melting point: 202 °C (dec.); Inhibitory Ratio at 25 μM (%) (recombinant human PAI-1 [1]; test compound 25 μM): >99%
O=C(O)c1cccc(C=C2SC(=O)N(Cc3ccc(Cl)c(Cl)c3)C2=O)c1 [compound 350, 5-(3-Carboxybenzylidene)-3-(3,4-dichlorobenzyl)thiazolidine-2,4-dione]	–	–	–	Inhibitory Ratio at 25 μM (%) (recombinant human PAI-1 [4]): 75 (method B) %
COC(=O)c1ccc(CN2C(=O)SC(=Cc3ccc(O)c(C(=O)O)c3)C2=O)cc1 [compound 409, 5-(3-Carboxy-4-hydroxybenzylidene)-3-(4-methoxycarbonylbenzyl)-thiazolidine-2,4-dione]	–	–	–	Inhibitory Ratio at 25 μM (%) (recombinant human PAI-1 [4]): 23 (method B) %
O=C(Nc1cccc(OC(F)(F)F)c1)c1cc(C=C2SC(=O)N(Cc3ccc(Cl)c(Cl)c3)C2=O)cc(O)c1O [compound 475]	520	completely inhibited	53	–
CC1=NN(c2ccc(Cl)c(Cl)c2)C(=O)C1=Cc1cc(O)c(O)cc1O [compound 503]	–	completely inhibited	>99	–
CC(C)C1=NN(c2cc(Cl)cc(Cl)c2)C(=O)C1=Cc1cc(O)c(O)cc1O [compound 504]	290	completely inhibited	89	–

More lines, main results first:

IC50 (recombinant human PAI-1 [1]) [nM]	inhibition of the complex formation of PAI-1 and tPA observed with SDS-PAGE (recombinant human PAI-1 [3])	Inhibitory Ratio at 25 μM (%) (recombinant human PAI-1 [1]; 25 μM test compound)	SMILES	other results
390	completely inhibited	70	O=C(Nc1cc([N+](=O)[O-])ccc1Cl)c1cc(C=C2SC(=O)N(Cc3ccc(Cl)c(Cl)c3)C2=O)ccc1O [compound 473]	–
500	completely inhibited	>99	CC(C)C1=NN(c2ccc(F)c(Cl)c2)C(=O)C1=Cc1cc(O)c(O)cc1O [compound 515, 4-(2,4,5-Trihydroxybenzylidne)-1-(3-chloro-4-fluorophenyl)-3-isopropyl-2-pyrazolin-5-one]	–
480	completely inhibited	>99	CCOC1=NN(c2ccc([N+](=O)[O-])cc2)C(=O)C1=Cc1cc(/C=C/c2ccccc2)ccc1O [compound 517]	–
